Experimental data taken from patent US6737537B2, “Platinum (II) antitumor compounds” (Parker Hughes Institute, priority 1999, dated 2004).

Experiments:
[1] = test system: NALM-6 (Leukemia); experiment: MTT cytotoxicity assay, NALM-6 cells, 48 hours; format: cell-based, human; settings: 48 hours incubation, read-out: IC50 [MTT Assays] NALM-6 (Leukemia)
Protocol: (§1) The cells were incubated with concentrations ranging from 0.1 μM to 250 μM of the appropriate compound in 96-well plates for 48 hours. Cytotoxicity was determined by MTT [(3-[4,5-dimethylthiazol-2-yl]-2,5-diphenyl tetrazolium bromide)] assays. The results are graphed in FIG. 1a for NALM-6 cells and FIG. 1b for MOLT-3 cells.
(§2) Cytotoxicity was determined by MTT assays and the IC50 values were determined using Graphpad Prism Software.

[2] = test system: MOLT-3 (Leukemia); experiment: MTT cytotoxicity assay, MOLT-3 cells, 48 hours; format: cell-based, human; settings: 48 hours incubation, read-out: IC50 [MTT Assays] MOLT-3 (Leukemia)
Protocol: as §1, §2

[3] = test system: U266BL (Multiple Myeloma); experiment: MTT cytotoxicity assay, U266BL cells, 48 hours; format: cell-based; settings: 48 hours incubation, read-out: IC50 [MTT Assays] U266BL (Multiple Myeloma)
Protocol: as §2

[4] = test system: HS-Sultan (Multiple Myeloma); experiment: MTT cytotoxicity assay, HS-Sultan cells, 48 hours; format: cell-based; settings: 48 hours incubation, read-out: IC50 [MTT Assays] HS-Sultan (Multiple Myeloma)
Protocol: as §2

[5] = test system: BT-20 (Breast Cancer); experiment: MTT cytotoxicity assay, BT-20 cells, 48 hours; format: cell-based; settings: 48 hours incubation, read-out: IC50 [MTT Assays] BT-20 (Breast Cancer)
Protocol: as §2

[6] = test system: PC3 (Prostate Cancer); experiment: MTT cytotoxicity assay, PC3 cells, 48 hours; format: cell-based; settings: 48 hours incubation, read-out: IC50 [MTT Assays] PC3 (Prostate Cancer)
Protocol: as §2

[7] = test system: U373 (Brain Tumor); experiment: MTT cytotoxicity assay, U373 cells, 48 hours; format: cell-based; settings: 48 hours incubation, read-out: IC50 [MTT Assays] U373 (Brain Tumor)
Protocol: as §2

[8] = test system: MDA-MB-231 (Breast Cancer); experiment: MTT cytotoxicity assay, MDA-MB-231 cells, 48 hours; format: cell-based; settings: 48 hours incubation, read-out: IC50 [MTT Assays] MDA-MB-231 (Breast Cancer)
Protocol: as §2

[9] = test system: B-lineage acute lymphoblastic leukemia (NALM-6) cells; experiment: In situ apoptosis assay (TUNEL), NALM-6 cells; format: cell-based, human; settings: 5 μM, 48 hours
Protocol: (§3) The effectiveness of inducing apoptosis by compound (5) as synthesized and described in example 2 was measured for human B-lineage acute lymphoblastic leukemia (NALM-6) cells, T-lineage acute lymphoblastic leukemia (MOLT-3) cells, and multiple myeloma (ARH-77) cells. The cells were incubated with concentrations of 5 μM of compound (5) in 96-well plates 48 hours. An in situ apoptosis assay, which allows the detection of exposed 3′-hydroxyl groups in fragmented DNA by TdT-mediated dUTP nick-end labeling (TUNEL), was used by fixing, permeabilizing and visualizing the DNA degradation. Apoptotic nuclei were detected visually with a color change. The amount of apoptotic nuclei of the control cells (not incubated with compound (5)) and the incubated cells were compared.

[10] = test system: T-lineage acute lymphoblastic leukemia (MOLT-3) cells; experiment: In situ apoptosis assay (TUNEL), MOLT-3 cells; format: cell-based, human; settings: 5 μM, 48 hours
Protocol: as §3

[11] = test system: multiple myeloma (ARH-77) cells; experiment: In situ apoptosis assay (TUNEL), ARH-77 cells; format: cell-based, human; settings: 5 μM, 48 hours
Protocol: as §3

[12] = test system: B-lineage acute lymphoblastic leukemia (NALM-6) cells; experiment: Clonogenic growth assay, NALM-6 cells; format: cell-based, human; settings: 24 hours exposure, 7 days culture
Protocol: (§4) The effect on clonogenic growth of human cancer cell lines was determined for compound (5) as synthesized and described in example 2 and cisplastin for human B-lineage acute lymphoblastic leukemia (NALM-6) cells and T-lineage acute lymphoblastic leukemia (MOLT-3) cells. The cells were incubated with concentrations ranging from 0 (control) to 10 μM of the appropriate compound for 24 hours at 37° C. in a humidified 5% CO2 atmosphere. The cells were then resuspended in clonogenic a-MEM medium containing 0.9% methyl cellulose. 1×10^4 cells/dish were plated in 35 mm Petri dishes and cultured for 7 days at 37° C. in a humidified 5% CO2 atmosphere. The colonies containing ≧20 cells were counted using an inverted phase microscope.

[13] = test system: T-lineage acute lymphoblastic leukemia (MOLT-3) cells; experiment: Clonogenic growth assay, MOLT-3 cells; format: cell-based, human; settings: 24 hours exposure, 7 days culture
Protocol: as §4

Row | Compound | IC50 [1] [µM] | IC50 [2] [µM] | IC50 [3] [µM] | IC50 [4] [µM] | IC50 [5] [µM] | IC50 [6] [µM] | IC50 [7] [µM] | further results
1 | N.N.[Cl][Pt][Cl] [Cisplatin, reference compound] | 1.1 ± 0.02 | 1.04 ± 0.02 | 15.6 ± 3.5 | 31.8 ± 7.2 | 7.21 ± 3.5 | > 250 | > 250 | 
2 | cis-[Pt(CPDCA)(DACH)]H2O [(5) DDE250] | 0.45 ± 0.02 | 0.66 ± 0.01 | 18.6 ± 2.1 | 21.5 ± 3.5 | 21.3 ± 3.1 | > 250 | > 250 | IC50 [8]: 38.5 ± 6.4 µM; apoptosis (apoptotic nuclei, TUNEL) over the control [9]: greatly increased apoptosis over the control; apoptosis (apoptotic nuclei, TUNEL) over the control [10]: greatly increased apoptosis over the control; apoptosis (apoptotic nuclei, TUNEL) over the control [11]: greatly increased apoptosis over the control; % Inhibition (clonogenic growth) ([12]; NALM-6, 0.01 μM): 42.9%; Mean No. of Colonies/10^5 cells ([12]; NALM-6, 0.01 μM): 2110 (1928, 2292) Colonies/10^5 cells; % Inhibition (clonogenic growth) ([12]; NALM-6, 0.1 μM): 48.4%; Mean No. of Colonies/10^5 cells ([12]; NALM-6, 0.1 μM): 1908 (1886, 1930) Colonies/10^5 cells; % Inhibition (clonogenic growth) ([12]; NALM-6, 1 μM): 93.3%; Mean No. of Colonies/10^5 cells ([12]; NALM-6, 1 μM): 248 (228, 268) Colonies/10^5 cells; Mean No. of Colonies/10^5 cells ([12]; NALM-6, 10 μM): 0 Colonies/10^5 cells; % Inhibition (clonogenic growth) ([13]; MOLT-3, 0.01 μM): 67.7%; Mean No. of Colonies/10^5 cells ([13]; MOLT-3, 0.01 μM): 1182 (1080, 1284) Colonies/10^5 cells; % Inhibition (clonogenic growth) ([13]; MOLT-3, 0.1 μM): 67.5%; Mean No. of Colonies/10^5 cells ([13]; MOLT-3, 0.1 μM): 1188 (1095, 1281) Colonies/10^5 cells; % Inhibition (clonogenic growth) ([13]; MOLT-3, 1 μM): 95.1%; Mean No. of Colonies/10^5 cells ([13]; MOLT-3, 1 μM): 179 (170, 188) Colonies/10^5 cells; Mean No. of Colonies/10^5 cells ([13]; MOLT-3, 10 μM): 0 Colonies/10^5 cells
3 | cis-[Pt(CPDCA)(NH2C2H4OH)2] [(3) DDE248] | 75.3 ± 5.2 | 33.5 ± 4.5 |  |  | 48.9 ± 7.3 | 248 ± 9.3 | 130 ± 8.2 | 
4 | cis-[Pt(CPDCA)(NH3)2]H2O [(6) DDE173] | 90.8 ± 6.2 | 41.8 ± 3.5 |  |  | > 250 | > 250 | > 250 | 
